# The supplement of paper PMC11628255, “Interference of metal ions on the bioluminescent signal of firefly, Renilla, and NanoLuc luciferases in high-throughput screening assays” (Frontiers in Chemistry, 2024)
# ± gives the standard deviation of the averaged measurements.
# System: Renilla luciferase (RLuc)
# Assay: normalised percent inhibition of luminescence (vs positive and negative controls); higher = stronger inhibition
# Settings: metal salt concentration 0.0001 mM; 100 mM HEPES buffer
# Description: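 Concentration-response (>=11 concentrations) of metal salts on purified FLuc, NLuc or RLuc luminescence in screening (SC) or 100 mM HEPES (H) buffer; salt pre-incubated with enzyme 10 min at RT, read 10 min after substrate. Normalised percent inhibition vs plate positive (PTC-124, isradipine, BTS) and DMSO negative controls; triplicate wells.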
row,normalised percent inhibition [%],SMILES
1,-21.7 ± 4.9,[Cl][Fe]([Cl])[Cl] [iron(III) chloride]
2,-50 ± 17,[Cl][Fe][Cl] [iron(II) chloride]
3,6.41 ± 13,[Cl][Pt-2]([Cl])([Cl])[Cl].[K+].[K+] [potassium tetrachloroplatinate(II)]

# Same assay, conditions: metal salt concentration 0.00025 mM; 100 mM HEPES buffer
row,normalised percent inhibition [%],SMILES
1,-24.6 ± 22,[Cl][Fe]([Cl])[Cl] [iron(III) chloride]
2,-20.5 ± 28,[Cl][Fe][Cl] [iron(II) chloride]
3,4.68 ± 16,[Cl][Pt-2]([Cl])([Cl])[Cl].[K+].[K+] [potassium tetrachloroplatinate(II)]

# Same assay, conditions: metal salt concentration 0.0005 mM; 100 mM HEPES buffer
row,normalised percent inhibition [%],SMILES
1,-24.2 ± 25,[Cl][Fe]([Cl])[Cl] [iron(III) chloride]
2,-32.5 ± 6.8,[Cl][Fe][Cl] [iron(II) chloride]
3,-6.41 ± 1.1,[Cl][Pt-2]([Cl])([Cl])[Cl].[K+].[K+] [potassium tetrachloroplatinate(II)]

# Same assay, conditions: metal salt concentration 0.001 mM; 100 mM HEPES buffer
row,normalised percent inhibition [%],SMILES
1,-15.5 ± 20,[Cl][Fe]([Cl])[Cl] [iron(III) chloride]
2,-19.3 ± 6.2,[Cl][Fe][Cl] [iron(II) chloride]
3,-11.3 ± 12,[Cl][Pt-2]([Cl])([Cl])[Cl].[K+].[K+] [potassium tetrachloroplatinate(II)]

# Same assay, conditions: metal salt concentration 0.002 mM; screening conditions buffer
row,normalised percent inhibition [%],SMILES
1,0.819 ± 2.5,[Cl][Fe]([Cl])[Cl] [iron(III) chloride]
2,-4.21 ± 7.8,[Cl][Fe][Cl] [iron(II) chloride]
3,13.4 ± 6.2,[Cl][Pt-2]([Cl])([Cl])[Cl].[K+].[K+] [potassium tetrachloroplatinate(II)]

# Same assay, conditions: metal salt concentration 0.005 mM; screening conditions buffer
row,normalised percent inhibition [%],SMILES
1,-4.9 ± 5,[Cl][Fe]([Cl])[Cl] [iron(III) chloride]
2,1.72 ± 8.3,[Cl][Fe][Cl] [iron(II) chloride]
3,5.74 ± 9.8,[Cl][Pt-2]([Cl])([Cl])[Cl].[K+].[K+] [potassium tetrachloroplatinate(II)]

# Same assay, conditions: metal salt concentration 0.01 mM; screening conditions buffer
row,normalised percent inhibition [%],SMILES
1,-11.6 ± 8.6,[Cl][Fe]([Cl])[Cl] [iron(III) chloride]
2,-1.72 ± 4.7,[Cl][Fe][Cl] [iron(II) chloride]
3,8.68 ± 1.2,[Cl][Pt-2]([Cl])([Cl])[Cl].[K+].[K+] [potassium tetrachloroplatinate(II)]

# Same assay, conditions: metal salt concentration 0.02 mM; screening conditions buffer
row,normalised percent inhibition [%],SMILES
1,0.263 ± 14,[Cl][Fe]([Cl])[Cl] [iron(III) chloride]
2,16.1 ± 9.5,[Cl][Fe][Cl] [iron(II) chloride]
3,2.57 ± 5.2,[Cl][Pt-2]([Cl])([Cl])[Cl].[K+].[K+] [potassium tetrachloroplatinate(II)]

# Same assay, conditions: metal salt concentration 0.025 mM; 100 mM HEPES buffer
row,normalised percent inhibition [%],SMILES
1,-1.73 ± 19,[Cl][Fe]([Cl])[Cl] [iron(III) chloride]
2,16.3 ± 3.9,[Cl][Fe][Cl] [iron(II) chloride]
3,8.38 ± 2.1,[Cl][Pt-2]([Cl])([Cl])[Cl].[K+].[K+] [potassium tetrachloroplatinate(II)]

# Same assay, conditions: metal salt concentration 0.05 mM; 100 mM HEPES buffer
row,normalised percent inhibition [%],SMILES
1,36.7 ± 12,[Cl][Fe]([Cl])[Cl] [iron(III) chloride]
2,43.1 ± 16,[Cl][Fe][Cl] [iron(II) chloride]
3,-3.94 ± 13,[Cl][Pt-2]([Cl])([Cl])[Cl].[K+].[K+] [potassium tetrachloroplatinate(II)]

# Same assay, conditions: metal salt concentration 0.05 mM; screening conditions buffer
row,normalised percent inhibition [%],SMILES
1,-5.21 ± 2,[Cl][Fe]([Cl])[Cl] [iron(III) chloride]
2,-2.31 ± 8.4,[Cl][Fe][Cl] [iron(II) chloride]
3,19.4 ± 3.4,[Cl][Pt-2]([Cl])([Cl])[Cl].[K+].[K+] [potassium tetrachloroplatinate(II)]

# Same assay, conditions: metal salt concentration 0.1 mM; 100 mM HEPES buffer
row,normalised percent inhibition [%],SMILES
1,61.1 ± 4.2,[Cl][Fe]([Cl])[Cl] [iron(III) chloride]
2,86.8 ± 4.5,[Cl][Fe][Cl] [iron(II) chloride]
3,5.67 ± 12,[Cl][Pt-2]([Cl])([Cl])[Cl].[K+].[K+] [potassium tetrachloroplatinate(II)]

# Same assay, conditions: metal salt concentration 0.1 mM; screening conditions buffer
row,normalised percent inhibition [%],SMILES
1,23.9 ± 8.6,[Cl][Fe]([Cl])[Cl] [iron(III) chloride]
2,54.2 ± 5.8,[Cl][Fe][Cl] [iron(II) chloride]
3,27.8 ± 2.8,[Cl][Pt-2]([Cl])([Cl])[Cl].[K+].[K+] [potassium tetrachloroplatinate(II)]

# Same assay, conditions: metal salt concentration 0.2 mM; screening conditions buffer
row,normalised percent inhibition [%],SMILES
1,32.6 ± 8.1,[Cl][Fe]([Cl])[Cl] [iron(III) chloride]
2,71.6 ± 2.6,[Cl][Fe][Cl] [iron(II) chloride]
3,41.3 ± 8.9,[Cl][Pt-2]([Cl])([Cl])[Cl].[K+].[K+] [potassium tetrachloroplatinate(II)]

# Same assay, conditions: metal salt concentration 0.5 mM; 100 mM HEPES buffer
row,normalised percent inhibition [%],SMILES
1,103 ± 1.9,[Cl][Fe]([Cl])[Cl] [iron(III) chloride]
2,105 ± 3.9,[Cl][Fe][Cl] [iron(II) chloride]
3,40.7 ± 15,[Cl][Pt-2]([Cl])([Cl])[Cl].[K+].[K+] [potassium tetrachloroplatinate(II)]

# Same assay, conditions: metal salt concentration 0.5 mM; screening conditions buffer
row,normalised percent inhibition [%],SMILES
1,48.5 ± 1.6,[Cl][Fe]([Cl])[Cl] [iron(III) chloride]
2,84.8 ± 5.6,[Cl][Fe][Cl] [iron(II) chloride]
3,66.7 ± 7,[Cl][Pt-2]([Cl])([Cl])[Cl].[K+].[K+] [potassium tetrachloroplatinate(II)]

# Same assay, conditions: metal salt concentration 1 mM; 100 mM HEPES buffer
row,normalised percent inhibition [%],SMILES
1,103 ± 2.3,[Cl][Fe]([Cl])[Cl] [iron(III) chloride]
